In patent publication US8916561B2, “Substituted quinoxaline compounds for the inhibition of PASK” (BioEnergenix, LLC, priority 2011, dated 2014):

Assays:
hPASK [1] = target: T1, hPASK (Homo sapiens, UniProt Q96RG2); assay: PAS Kinase Luminescence Assay (Kinase-Glo); format: biochemical; set-up: IC50 Kinase Domain; host or cells: insect cells; conditions: MBP substrate, read-out: IC50 Kinase Domain
Method: One assay for purified hPASK activity utilizes the Kinase-Glo Luminescent Kinase Assay (Promega), which quantifies the amount of ATP remaining in solution following kinase reaction. The assay is carried out in a 96-well plate format and is performed by adding a volume of Kinase-Glo Reagent (Promega, catalog #V3771) equal to the volume of solution in the well of a completed kinase reaction. Kinase-Glo reagent contains Luciferase and its substrate. After addition to a kinase reaction it allows to measure luminescence. The amount of ATP left in solution at the time of Kinase-Glo Plus addition is directly proportional to the luminescence that is measured in each well, and inversely correlated with kinase activity.
Purified hPASK from insect cells (0.02 μg) is added to a 50 μL reaction mix containing 40 mM HEPES (pH 7.0), 100 mM KCl, 5 mM MgCl2, 1 mM DTT and 1 μg of MBP protein. Inhibitory compounds are then added and the mixture is incubated for 10 min at 25° C. before adding 5 μL of ATP (at desired concentration). The reaction is allowed to proceed at 25° C. for 1 hour before adding 50 μL of Kinase-Glo reagent. The luminescence is measured as soon as 10 minutes after Kinase-Glo reagent is added.
Target sequence in this assay (Q96RG2 999-1251 limits assumed): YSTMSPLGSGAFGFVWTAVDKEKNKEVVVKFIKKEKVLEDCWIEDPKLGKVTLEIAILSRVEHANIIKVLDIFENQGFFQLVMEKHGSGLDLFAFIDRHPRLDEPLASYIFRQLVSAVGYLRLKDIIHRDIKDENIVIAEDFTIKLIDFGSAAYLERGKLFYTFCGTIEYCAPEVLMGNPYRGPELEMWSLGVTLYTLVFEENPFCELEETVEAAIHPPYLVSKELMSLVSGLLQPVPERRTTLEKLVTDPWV

PASK (Invitrogen) = target: T2, PASK (Invitrogen) (Homo sapiens, UniProt Q96RG2); assay: PAS Kinase FRET Assay; format: biochemical; conditions: TR-FRET (665 nm/615 nm), Ulight-peptide substrate; read-out: IC50 Kinase Domain
T2 construct: IC50 Kinase Domain; purchased Invitrogen
T2 sequence (Q96RG2 999-1251 limits assumed): as above
From the text: The aim of the FRET assay is to determine the inhibition potential of test compounds on targeted kinase. This assay platform provides a homogenous screening method for measuring kinase activity by quantitating the amount of phospho-substrate in solution following a kinase reaction.
In the presence of kinase and ATP, the Ulight-peptide is phosphorylated and captured by an anti-phospho-substrate antibody, which brings the Eu chelate donor and Ulight acceptor dyes into close proximity. Upon excitation at 340 nm, the Eu chelate transfers its energy to the Ulight dye, resulting in a fluorescent light emission at 665 nm.
Titration of kinase at 1 mM ATP was achieved via the following protocol. After making serial three-fold dilutions of PASK (Invitrogen) in reaction buffer across the plate; 5 μl of kinase dilution and 5 μl substrate/ATP mix were added to the wells of the white Optiplate-384 (PerkinElmer). The contents of the plate were incubated at RT for 1 h. The reaction was stopped by adding 5 μl of stop solution to each test well followed by mixing and incubation at RT for 10 minutes. 5 μl of detection mix (detection antibody diluted in detection butler) was added; the contents of the plate were mixed and then incubated in the dark for 1 hour at RT. The signal was recorded at TR-FRET mode (665 nm/615 nm), The results were graphed to calculate the EC50.
Titration of ATP at the EC50 concentration of kinase to determine ATP Km,app. was performed using the following method. After making serial dilutions of ATP (Invitrogen), 5 μl of ATP dilution and 5 μl substrate/kinase mix were added to the wells of the white Optiplate-384 (PerkinElmer). The contents of the plate were and incubated at RT for 1 h. The reaction was stopped by adding 5 μl of stop solution to each test well followed by mixing and incubation at RT for 10 minutes. 5 μl of detection mix (detection antibody diluted in detection buffer) was added; the contents of the plate were mixed and then incubated in the dark for 1 hour at RT. The signal was recorded at TR-FRET mode (665 nm/615 nm). The results were graphed to calculate the EC50 as the ATP Km,app.
Compound screening was done via the following method. 10 mM stock solution of test compound in DMSO was prepared by dissolving test compound in DMSO at RT for 1 hour, and then sonicating at 100% output for 8 minutes. If compound is not soluble under this condition, it was diluted to 3 mM. Kinase reaction buffer was prepared containing 10 mM MgCl2, 50 mM HEPES, 1 EGTA, 0.01% TWEEN-20, 2 mM WT. Serial dilutions of the test compounds were prepared at 4× final assay concentrations using Freedom EVO200® dispensing system as follows: 12×10^−5M, 4×10^−5 M, 1.33×10^−5M, 4.44×10^−6 M. 1.48×10^−6 M, 4.92×10^−7 M, 1.65×10^−7 M, […], 1.82×10^−8 M, 6.09×10^−9, 2.03×10^−9 M. Test compounds (2.5 μl at 4× the final assay concentration) was added to wells using Freedom EVO200® dispensing system. As a positive control, 2.5 μl of positive compound was added to assay wells, and 2.5 μl of DMSO to assay wells as vehicle control. Kinase solution was prepared in reaction buffer at 2× final assay concentration. Kinase solution (5 μl) was added to each well of the assay plate. The substrate and ATP solution was prepared in kinase reaction buffer at 4× final assay concentration. The kinase reaction was started by adding 2.5 μl of substrate+ATP mix solution to each well of the assay plate. The plate is mixed on a plate shaker; then covered and allowed to react for 2 hours in the dark at 25° C. without shaking. The reaction was stopped by adding 5 μl of stop solution to each test well followed by mixing and incubation at RT for 10 minutes in the dark. 5 μl of detection mix (detection antibody diluted in detection buffer) was added; the contents of the plate were mixed and then incubated in the dark for 1 hour at RT. The signal was recorded at TR-FRET mode (665 nm/615 nm).

PASK = target: T3, PASK (UniProt #Q96RG2; human recombinant N-terminal GST tagged construct, residues 879-1323) (Homo sapiens, UniProt Q96RG2); assay: PASK ATP Radiochemical Assay; format: biochemical; conditions: 33P-ATP radiochemical assay, Myelin Basic Protein substrate; read-out: IC50 Kinase Domain
T3 construct: human recombinant N-terminal GST tagged construct, residues 879-1323; GST (N); host or cells: insect cells
T3 sequence (Q96RG2 879-1323, stated change not applied): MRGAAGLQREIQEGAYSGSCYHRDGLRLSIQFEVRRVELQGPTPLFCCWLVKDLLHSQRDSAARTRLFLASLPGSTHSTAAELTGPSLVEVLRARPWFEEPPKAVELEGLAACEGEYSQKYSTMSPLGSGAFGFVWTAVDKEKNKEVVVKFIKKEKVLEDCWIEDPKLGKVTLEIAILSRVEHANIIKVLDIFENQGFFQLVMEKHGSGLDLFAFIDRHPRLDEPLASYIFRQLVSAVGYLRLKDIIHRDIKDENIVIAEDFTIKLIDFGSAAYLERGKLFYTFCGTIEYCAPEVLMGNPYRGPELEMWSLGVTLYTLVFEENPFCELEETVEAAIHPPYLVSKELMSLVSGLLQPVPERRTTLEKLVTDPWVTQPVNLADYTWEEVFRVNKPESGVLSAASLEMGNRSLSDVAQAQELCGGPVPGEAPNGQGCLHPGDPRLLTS
Method: Purified PASK (UniProt #Q96RG2; human recombinant N-terminal GST tagged construct, residues 879-1323) from insect cells (final concentration 5 nM) is added to freshly prepared Base Reaction Buffer containing 20 mM HEPES (pH 7.5), 10 mM MgCl2, 1 mM EGTA, 0.02% Brij35, 0.02 mg/ml BSA, 0.1 mM Na3VO4, 2 mM DTT, 1% DMSO and Myelin Basic Protein (20 μM final). Test compounds in DMSO are then added and the mixture, followed by delivery of ^33P-ATP (specific activity 0.01 μCi/μl final) to initiate the reaction. The kinase reaction is incubated for 120 min at room temperature. The entire reaction mixture is washed through onto a P81 Phosphocellulose paper and washed three times for 10 minutes in 75 mM phosphoric acid and once in methanol prior to drying and scintillation counting.

hPASK [2] = target: T1, hPASK; assay: Cell assay for hPASK activity, phospho-AKT substrate antibody; format: cell-based; set-up: expressed in transfected cells; host or cells: HEK293T; conditions: HEK293T cells transfected with V5-tagged PASK, phospho-AKT substrate antibody Western blot
Method: The assay applies the ability of PASK to autophoshorylate in vivo on the sequence recognized by phospho-Akt substrate antibody (110B7E, Cell Signaling). Cell line HEK293T is transfected with vector (pcDNA 3.1-PASK) expressing V5-tagged wilde-type of PASK. Transfected cells are then treated with putative inhibitors of PASK. Twenty-four hours post treatment cells are lysed and PASK is separated from cellular proteins by immunoprecipitation with V5-conjugated beads (Sigma). PASK is released from immunocomlexes, separated on the SDS-PAGE gel and transferred on nitrocellulose membrane. Fraction of PASK phosphorylated on phospho-AKT Substrate site(s) is determined by probing with phospho-AKT antibody and normalized to total PASK level present in the same immunoprecipitates. We have shown the correlation between phosphorylation of phospho-AKT Substrate sequence and inhibition of PASK activity in vivo.
HEK293T cells are maintained and propagated in 10 cm dish in 10 ml of DMEM/10% FBS, split and re-seeded in 6 well plate (10^6 cells/well) in 2 ml of DMEM/10% FBS. Cells are transfected 18 hours post plating with lug of construct expressing wild-type of hPASK using lipofectamine 2000 according to the manufacturers protocol (Invitrogen). Cells expressing PASK are treated either with DMSO or PASK inhibitors. […] Intensities of the bands are quantitated and data normalized.
Target sequence in this assay (Q96RG2 whole entry, the tested form may be a part): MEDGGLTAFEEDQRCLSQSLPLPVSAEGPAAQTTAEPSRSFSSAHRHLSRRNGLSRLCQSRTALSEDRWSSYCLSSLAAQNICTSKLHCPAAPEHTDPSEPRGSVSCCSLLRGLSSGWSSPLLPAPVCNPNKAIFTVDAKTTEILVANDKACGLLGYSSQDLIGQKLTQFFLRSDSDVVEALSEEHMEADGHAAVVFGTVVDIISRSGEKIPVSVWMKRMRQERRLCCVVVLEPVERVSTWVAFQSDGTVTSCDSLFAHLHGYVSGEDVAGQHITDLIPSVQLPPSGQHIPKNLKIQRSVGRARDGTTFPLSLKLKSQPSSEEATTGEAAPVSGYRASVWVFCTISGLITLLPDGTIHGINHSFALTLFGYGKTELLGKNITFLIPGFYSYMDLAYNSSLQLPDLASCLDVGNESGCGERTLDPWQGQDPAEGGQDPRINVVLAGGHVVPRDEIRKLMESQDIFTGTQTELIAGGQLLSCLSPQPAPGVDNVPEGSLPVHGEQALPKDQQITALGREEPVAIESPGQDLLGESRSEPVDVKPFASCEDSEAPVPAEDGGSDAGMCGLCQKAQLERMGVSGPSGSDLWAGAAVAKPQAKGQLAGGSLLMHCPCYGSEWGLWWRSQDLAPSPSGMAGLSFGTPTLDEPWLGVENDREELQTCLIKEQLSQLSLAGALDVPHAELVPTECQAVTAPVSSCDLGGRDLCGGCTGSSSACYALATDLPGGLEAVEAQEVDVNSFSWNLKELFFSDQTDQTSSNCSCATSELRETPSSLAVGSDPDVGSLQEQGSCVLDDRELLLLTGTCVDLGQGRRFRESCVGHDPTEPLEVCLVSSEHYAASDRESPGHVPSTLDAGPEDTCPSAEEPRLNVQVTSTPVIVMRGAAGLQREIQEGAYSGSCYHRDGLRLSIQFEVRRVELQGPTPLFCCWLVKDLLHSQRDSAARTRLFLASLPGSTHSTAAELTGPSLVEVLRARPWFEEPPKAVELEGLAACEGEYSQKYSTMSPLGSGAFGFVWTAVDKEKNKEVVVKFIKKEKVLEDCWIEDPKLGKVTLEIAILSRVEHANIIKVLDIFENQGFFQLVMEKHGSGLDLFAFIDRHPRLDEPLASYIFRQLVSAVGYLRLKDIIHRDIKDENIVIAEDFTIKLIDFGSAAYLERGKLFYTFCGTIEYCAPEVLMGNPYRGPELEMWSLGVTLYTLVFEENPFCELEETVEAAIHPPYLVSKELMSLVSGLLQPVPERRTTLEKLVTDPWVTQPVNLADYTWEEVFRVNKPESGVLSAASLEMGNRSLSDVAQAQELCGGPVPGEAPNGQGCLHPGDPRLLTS

Row | IC50 (hPASK [1]) [µM] | IC50 (PASK (Invitrogen)) [µM] | IC50 (PASK) [µM] | IC50 (hPASK [2]) [µM] | SMILES
1 | > 10 | – | – | – | CNS(=O)(=O)c1ccc2nc(-c3ccc(OC)cc3)c(-c3ccc(OC)cc3)nc2c1 [Example 36, 2,3-Bis(4-methoxyphenyl)-N-methylquinoxaline-6-sulfonamide]
2 | ≤ 10 | – | – | – | COc1ccc(-c2nc3ccc(S(=O)(=O)N4CCOCC4)cc3nc2-c2ccc(OC)cc2)cc1 [Example 37, 4-(2,3-Bis(4-methoxyphenyl)quinoxalin-6-ylsulfonyl)morpholine]
3 | – | ≤ 10 | – | – | COc1ccc(-c2nc3ccc(S(=O)(=O)O)cc3nc2-c2ccc(OC)cc2)cc1 [Example 38, 2,3-Bis(4-methoxyphenyl)quinoxaline-6-sulfonic acid]
4 | – | ≤ 10 | – | – | CC(C)N(C)c1nc2cc(-c3nnn[nH]3)ccc2nc1-c1ccc2[nH]ncc2c1 [Example 31, 3-(1H-Indazol-5-yl)-N-methyl-N-(propan-2-yl)-7-(1H-tetrazol-5-yl)quinoxalin-2-amine]
5 | – | ≤ 10 | ≤ 10 | – | Cc1cc2cc(-c3nc4ccc(-c5nnn[nH]5)cc4nc3N(C)C(C)C)ccc2[nH]1 [Example 32, N-Isopropyl-N-methyl-3-(2-methyl-1H-indol-5-yl)-7-(1H-tetrazol-5-yl)quinoxalin-2-amine]
6 | – | ≤ 10 | ≤ 10 | – | COc1ccc(-c2nc3ccc(-c4nnn[nH]4)cc3nc2-c2ccc(OC)cc2)cc1 [Example 26, 2,3-Bis(4-methoxyphenyl)-6-(1H-tetrazol-5-yl)quinoxaline]
7 | ≤ 10 | – | – | – | COc1ccc(-c2nc3ccc(S(N)(=O)=O)cc3nc2-c2ccc(OC)cc2)cc1 [Example 35, 2,3-Bis(4-methoxyphenyl)quinoxaline-6-sulfonamide]
8 | – | ≤ 10 | ≤ 10 | – | C[C@H]1CCCN1c1nc2cc(-c3nn[nH]n3)ccc2nc1-c1ccc(F)cc1 [Example 29, (S)-2-(4-Fluorophenyl)-3-(2-methylpyrrolidin-1-yl)-6-(2H-tetrazol-5-yl)quinoxaline]
9 | – | ≤ 10 | – | – | CC[C@@H](C)N(C)c1nc2cc(-c3nnn[nH]3)ccc2nc1-c1ccc(F)cc1 [Example 30, (R)—N-sec-Butyl-3-(4-fluorophenyl)-N-methyl-7-(1H-tetrazol-5-yl)quinoxalin-2-amine]
10 | ≤ 10 | – | ≤ 10 | – | COc1ccc(-c2nc3ccc(NS(C)(=O)=O)cc3nc2-c2ccc(OC)cc2)cc1 [Example 34, N-(2,3-Bis(4-methoxyphenyl)quinoxalin-6-yl)methanesulfonamide]
11 | – | ≤ 10 | ≤ 10 | – | CC(C)N(C)c1nc2cc(-c3nn[nH]n3)ccc2nc1-c1ccc(F)cc1 [Example 28, 3-(4-Fluorophenyl)-N-isopropyl-N-methyl-7-(2H-tetrazol-5-yl)quinoxalin-2-amine]
12 | – | – | ≤ 10 | – | CCc1ccc(-c2nc3ccc(-c4nnn[nH]4)cc3nc2-c2ccc(CC)cc2)cc1 [Example 27, 2,3-Bis(4-ethylphenyl)-6-(1H-tetrazol-5-yl)quinoxaline]
13 | – | ≤ 10 | – | – | CC(C)N(C)c1nc2cc(-c3nnn[nH]3)ccc2nc1-c1cc2cc(F)ccc2o1 [Example 33, 3-(5-Fluorobenzofuran-2-yl)-N-methyl-N-(propan-2-yl)-7-(1H-tetrazol-5-yl)quinoxalin-2-amine]
14 | – | – | ≤ 10 | – | Fc1ccc(-c2nc3ccc(-c4nnn[nH]4)cc3nc2-c2ccc(F)cc2)cc1 [Example 25, 2,3-Bis(4-fluorophenyl)-6-(1H-tetrazol-5-yl) quinoxaline]
15 | – | ≤ 10 | – | – | Cc1[nH]c2ccc(-c3nc4ccc(-c5nnn[nH]5)cc4nc3N(C)C(C)C)cc2c1C(=O)C(F)(F)F [Example 24, 2,2,2-Trifluoro-1-(5-(3-(isopropyl(methyl)amino)-6-(1H-tetrazol-5-yl)quinoxalin-2-yl)-2-methyl-1H-indol-3-yl)ethanone]
16 | – | ≤ 10 | ≤ 10 | ≤ 10 | CC(C)N(C)c1nc2cc(C(N)=O)ccc2nc1-c1ccc(F)cc1 [Example 1, 2-(4-Fluorophenyl)-3-(isopropyl(methyl)amino)quinoxaline-6-carboxamide]
